Measured values: US7473688B2, “Indolobenzazepine HCV NS5B inhibitors” (Bristol-Myers Squibb Company, priority 2005, dated 2009)

target: T1, HCV NS5B (Hepatitis C virus genotype 1b, UniProt Q9WMX2); assay: HCV NS5B RdRp enzyme assay (preincubation protocol); type: biochemical; conditions: Table 1, read-out: IC50*
T1 construct: The protein was expressed with an 18 amino acid C-terminal truncation to enhance the solubility; made in house; host or cells: E. coli BL21 (DE3), pET21a
Method: HCV NS5B RdRp cloning, expression, and purification. The cDNA encoding the NS5B protein of HCV, genotype 1b, was cloned into the pET21a expression vector. The protein was expressed with an 18 amino acid C-terminal truncation to enhance the solubility. The E. coli competent cell line BL21 (DE3) was used for expression of the protein. Cultures were grown at 37° C. for ˜4 hours until the cultures reached an optical density of 2.0 at 600 nm. The cultures were cooled to 20° C. and induced with 1 mM IPTG. Fresh ampicillin was added to a final concentration of 50 μg/ml and the cells were grown overnight at 20° C.
Cell pellets (3L) were lysed for purification to yield 15-24 mgs of purified NS5B. The lysis buffer consisted of 20 mM Tris-HCl, pH 7.4, 500 mM NaCl, 0.5% triton X-100, 1 mM DTT, 1 mM EDTA, 20% glycerol, 0.5 mg/ml lysozyme, 10 mM MgCl2, 15 ug/ml deoxyribonuclease I, and Complete TM protease inhibitor tablets (Roche). After addition of the lysis buffer, frozen cell pellets were resuspended using a tissue homogenizer. To reduce the viscosity of the sample, aliquots of the lysate were sonicated on ice using a microtip attached to a Branson sonicator. The sonicated lysate was centrifuged at 100,000×g for 1 hr at 4° C. and filtered through a 0.2 μm filter unit (Corning).
The protein was purified using three sequential chromatography steps: Heparin sepharose CL-6B, polyU sepharose 4B, and Hitrap SP sepharose (Pharmacia). The chromatography buffers were identical to the lysis buffer but contained no lysozyme, deoxyribonuclease I, MgCl2 or protease inhibitor and the NaCl concentration of the buffer was adjusted according to the requirements for charging the protein onto the column. Each column was eluted with a NaCl gradient which varied in length from 5-50 column volumes depending on the column type. After the final chromatography step, the resulting purity of the enzyme is >90% based on SDS-PAGE analysis. The enzyme was aliquoted and stored at −80° C.
Standard HCV NS5B RdRp enzyme assay. HCV RdRp genotype 1b assays were run in a final volume of 60 μl in 96 well plates (Costar 3912). The assay buffer is composed of 20 mM Hepes, pH 7.5, 2.5 mM KCl, 2.5 mM MgCl2, 1 mM DTT, 1.6 U RNAse inhibitor (Promega N2515), 0.1 mg/ml BSA (Promega R3961), and 2% glycerol. All compounds were serially diluted (3-fold) in DMSO and diluted further in water such that the final concentration of DMSO in the assay was 2%. HCV RdRp genotype 1b enzyme was used at a final concentration of 28 nM. A polyA template was used at 6 nM, and a biotinylated oligo-dT12 primer was used at 180 nM final concentration. Template was obtained commercially (Amersham 27-4110). Biotinylated primer was prepared by Sigma Genosys. 3H-UTP was used at 0.6 μCi (0.29 μM total UTP). Reactions were initiated by the addition of enzyme, incubated at 30° C. for 60 min, and stopped by adding […] of 50 mM EDTA containing SPA beads (4 μg/μl, Amersham RPNQ 0007). Plates were read on a Packard Top Count NXT after >1 hr incubation at room temperature.
Modified HCV NS5B RdRp enzyme assay. A modified enzyme assay was performed essentially as described for the standard enzyme assay except for the following: The biotinylated oligo dT12 primer was precaptured on streptavidin-coated SPA beads by mixing primer and beads in assay buffer and incubating at room temperature for one hour. Unbound primer was removed after centrifugation. The primer-bound beads were resuspended in 20 mM Hepes buffer, pH 7.5 and used in the assay at final concentrations of […] primer and 0.67 μg/μl beads. Order of addition in the assay: Enzyme (14 nM) was added to diluted compound followed by the addition of a mixture of template (0.2 nM), 3H-UTP (0.6 μCi, 0.29 μM), and primer-bound beads, to initiate the reaction; concentrations given are final. Reactions were allowed to proceed for 4 hours at 30° C.
IC50 values for compounds were determined using seven different [I]. […]

T1 sequence (Q9WMX2 2420-2992): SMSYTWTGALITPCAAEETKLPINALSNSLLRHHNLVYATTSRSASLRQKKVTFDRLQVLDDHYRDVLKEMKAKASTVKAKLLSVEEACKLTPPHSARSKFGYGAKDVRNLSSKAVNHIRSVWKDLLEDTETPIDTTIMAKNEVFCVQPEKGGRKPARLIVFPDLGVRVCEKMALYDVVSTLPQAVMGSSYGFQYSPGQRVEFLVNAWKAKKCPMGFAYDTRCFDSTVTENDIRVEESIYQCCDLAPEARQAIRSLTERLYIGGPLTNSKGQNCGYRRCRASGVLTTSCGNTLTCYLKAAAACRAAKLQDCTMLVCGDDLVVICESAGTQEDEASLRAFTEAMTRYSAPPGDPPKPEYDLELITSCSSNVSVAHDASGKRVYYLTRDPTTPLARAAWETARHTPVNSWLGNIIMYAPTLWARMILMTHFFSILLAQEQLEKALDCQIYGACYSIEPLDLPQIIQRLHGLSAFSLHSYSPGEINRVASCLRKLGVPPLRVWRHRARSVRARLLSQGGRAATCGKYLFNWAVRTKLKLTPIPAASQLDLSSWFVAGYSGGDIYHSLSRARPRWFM

Compound | IC50 [nM]
C[C@@H]1CN(C(=O)NC2Cc3ccccc3-c3c(C4CCCCC4)c4ccc(C(=O)O)cc4n3C2)C[C@H](C)O1 (stereo partly drawn) [drawing 151] | 10 to 1000
O=C(NCc1cnn[nH]1)c1ccc2c(C3CCCCC3)c3n(c2c1)CC(C(=O)N1CCC(N2CCOCC2)CC1)=Cc1ccccc1-3 [drawing 204] | 10 to 1000
CON(C)S(=O)(=O)NC(=O)c1ccc2c(C3CCCCC3)c3n(c2c1)CC(C(=O)N1CCOCC1)=Cc1ccccc1-3 [drawing 90] | 10 to 1000
COC(=O)c1ccc2c(C3CCCCC3)c3n(c2c1)CC(C(=O)N1CCC(N2CC[C@H](F)C2)CC1)=Cc1ccccc1-3 | > 1000

same assay, conditions: Table 1a, read-out: IC50*

Compound | IC50 [nM]
CC(=O)NC1Cc2ccccc2-c2c(C3CCCCC3)c3ccc(C(=O)NS(=O)(=O)N(C)C)cc3n2C1 (stereo not drawn) | 10 to 1000
C[C@@H]1CN(C(=O)C2=Cc3c(ccc4c3OCO4)-c3c(C4CCCCC4)c4ccc(C(=O)O)cc4n3C2)C[C@H](C)O1 | 10 to 1000
CN(C)C(=O)CN(C)C(=O)C1=Cc2ccccc2-c2c(C3CCCCC3)c3ccc(C(=O)NS(=O)(=O)N(C)C)cc3n2C1 | 10 to 1000
COC(=O)c1ccc2c(C3CCCCC3)c3n(c2c1)CC(NC(=O)C1CCCC(OC)C1)Cc1ccccc1-3 (stereo not drawn) | > 1000
O=C(NC[C@@H]1CCCO1)c1ccc2c(C3CCCCC3)c3n(c2c1)CC(C(=O)N1CCC(N2CCOCC2)CC1)=Cc1ccccc1-3 | 10 to 1000
O=C(NCCc1nc2ccccc2[nH]1)c1ccc2c(C3CCCCC3)c3n(c2c1)CC(C(=O)N1CCC(N2CCOCC2)CC1)=Cc1ccccc1-3 | 10 to 1000
COc1ccc2c(c1)C=C(C(=O)N1CCC[C@H]1C(=O)N(C)C)Cn1c-2c(C2CCCCC2)c2ccc(C(=O)NS(=O)(=O)N(C)C)cc21 | 10 to 1000
COC(=O)c1ccc2c(C3CCCCC3)c3n(c2c1)CC(C(=O)NCC1CCCO1)Cc1cc(OC)ccc1-3 (stereo not drawn) | > 1000
COc1ccc2c(c1)C=C(C(=O)N1CCN(c3nccs3)CC1)Cn1c-2c(C2CCCCC2)c2ccc(C(=O)NS(=O)(=O)N(C)C)cc21 | 10 to 1000
COC(=O)c1ccc2c(C3CCCCC3)c3n(c2c1)CC(NC(=O)C1CCOCC1)Cc1ccccc1-3 (stereo not drawn) | > 1000
CCN(CC)C(=O)CN(C)C(=O)C1=Cc2cc(OC)ccc2-c2c(C3CCCCC3)c3ccc(C(=O)NS(=O)(=O)N(C)C)cc3n2C1 | 10 to 1000
COc1ccc2c(c1)CC(C(=O)N1CCN(C(=O)N(C)C)CC1)Cn1c-2c(C2CCCCC2)c2ccc(C(=O)NS(=O)(=O)N(C)C)cc21 (stereo not drawn) | 10 to 1000
COc1ccc2c(c1)C=C(C(=O)N1CCN(C(=O)c3ccco3)CC1)Cn1c-2c(C2CCCCC2)c2ccc(C(=O)NS(=O)(=O)N(C)C)cc21 | 10 to 1000
C[C@@H]1CN(C(=O)C2=Cc3cc(F)ccc3-c3c(C4CCCCC4)c4ccc(C(=O)O)cc4n3C2)C[C@H](C)N1C | 10 to 1000
COc1ccc2c(c1)C=C(C(=O)N1CCC3(CC1)OC(=O)c1ccccc13)Cn1c-2c(C2CCCCC2)c2ccc(C(=O)NS(=O)(=O)N(C)C)cc21 | 10 to 1000
COC(=O)c1ccc2c(C3CCCCC3)c3n(c2c1)CC(NC(=O)OC(C)(C)C)Cc1ccccc1-3 (stereo not drawn) | 10 to 1000
CN(C)C(=O)CNC(=O)c1ccc2c(C3CCCCC3)c3n(c2c1)CC(C(=O)N1CCC(N2CCOCC2)CC1)=Cc1ccccc1-3 | 10 to 1000
C=CCNC(=O)N1CCN(C(=O)C2=Cc3ccccc3-c3c(C4CCCCC4)c4ccc(C(=O)NS(=O)(=O)N(C)C)cc4n3C2)CC1 | 10 to 1000
COc1ccc2c(c1)C=C(C(=O)N1CCN(C(=O)CO)CC1)Cn1c-2c(C2CCCCC2)c2ccc(C(=O)NS(=O)(=O)N(C)C)cc21 | 10 to 1000
COC(=O)CNC(=O)CNC(=O)C1=Cc2cc(OC)ccc2-c2c(C3CCCCC3)c3ccc(C(=O)NS(=O)(=O)N(C)C)cc3n2C1 | 10 to 1000
COc1ccc2c(c1)C=C(C(=O)N1CCC[C@H](OC(C)=O)C1)Cn1c-2c(C2CCCCC2)c2ccc(C(=O)NS(=O)(=O)N(C)C)cc21 | 10 to 1000

Compound | IC50 [nM]
COc1ccc2c(c1)C=C(C(=O)N(C)C1CCS(=O)(=O)C1)Cn1c-2c(C2CCCCC2)c2ccc(C(=O)NS(=O)(=O)N(C)C)cc21 (stereo not drawn) | 10 to 1000
COC(=O)c1ccc2c(C3CCCCC3)c3n(c2c1)CC(C(=O)N1C[C@@H](C)N(C)[C@@H](C)C1)=Cc1cc(F)ccc1-3 | 10 to 1000
C[C@@H]1CN(C(=O)C2=Cc3ccccc3-c3c(C4CCCCC4)c4ccc(C(=O)NS(=O)(=O)OCC(C)(C)C)cc4n3C2)C[C@H](C)O1 | 10 to 1000
COc1ccc2c(c1)C=C(C(=O)N1CCS(=O)(=O)CC1)Cn1c-2c(C2CCCCC2)c2ccc(C(=O)NS(=O)(=O)N(C)C)cc21 | 10 to 1000
COCCNC(=O)CN(C)C(=O)C1=Cc2cc(OC)ccc2-c2c(C3CCCCC3)c3ccc(C(=O)NS(=O)(=O)N(C)C)cc3n2C1 | 10 to 1000
O=C(NCc1nnn[nH]1)c1ccc2c(C3CCCCC3)c3n(c2c1)CC(C(=O)N1CCC(N2CCOCC2)CC1)=Cc1ccccc1-3 | 10 to 1000
CN(C)C(=O)C1CCN(C(=O)C2=Cc3ccccc3-c3c(C4CCCCC4)c4ccc(C(=O)NS(=O)(=O)N(C)C)cc4n3C2)CC1 | 10 to 1000
CN(C)S(=O)(=O)NC(=O)c1ccc2c(C3CCCCC3)c3n(c2c1)C[C@@H](NC(=O)N1CCOCC1)Cc1ccccc1-3 | 10 to 1000
O=C(NCc1nc2ccccc2[nH]1)c1ccc2c(C3CCCCC3)c3n(c2c1)CC(C(=O)N1CCC(N2CCOCC2)CC1)=Cc1ccccc1-3 | 10 to 1000
COCCNC(=O)CN(C)C(=O)C1Cc2cc(OC)ccc2-c2c(C3CCCCC3)c3ccc(C(=O)NS(=O)(=O)N(C)C)cc3n2C1 (stereo not drawn) | 10 to 1000
O=C(NCc1ccccn1)c1ccc2c(C3CCCCC3)c3n(c2c1)CC(C(=O)N1CCC(N2CCOCC2)CC1)=Cc1ccccc1-3 | 10 to 1000
COc1ccc2c(c1)C=C(C(=O)N1CCC(Oc3ncccn3)CC1)Cn1c-2c(C2CCCCC2)c2ccc(C(=O)NS(=O)(=O)N(C)C)cc21 | 10 to 1000
COC1CCCC(C(=O)N(C)C2Cc3ccccc3-c3c(C4CCCCC4)c4ccc(C(=O)NS(=O)(=O)N(C)C)cc4n3C2)C1 (stereo not drawn) | 10 to 1000
COc1ccc2c(c1)C=C(C(=O)N1C[C@H](O)C[C@H]1C(=O)Nc1ccc3c(C)cc(=O)oc3c1)Cn1c-2c(C2CCCCC2)c2ccc(C(=O)NS(=O)(=O)N(C)C)cc21 | 10 to 1000
O=C(NS(=O)(=O)N1CCOCC1)c1ccc2c(C3CCCCC3)c3n(c2c1)CC(C(=O)N1CCN(CC(F)(F)F)CC1)=Cc1ccccc1-3 | 10 to 1000
COc1ccc2c(c1)C=C(C(=O)N1C[C@@H](C)O[C@@H](C)C1)Cn1c-2c(C2CCCCC2)c2ccc(C(=O)NS(=O)(=O)N3CCN(C)CC3)cc21 | 10 to 1000
COc1ccc2c(c1)C=C(C(=O)NCCN1C[C@@H](C)O[C@@H](C)C1)Cn1c-2c(C2CCCCC2)c2ccc(C(=O)NS(=O)(=O)N(C)C)cc21 | 10 to 1000
CN1CCN(C(=O)C2=Cc3ccccc3-c3c(C4CCCCC4)c4ccc(C(=O)NS(=O)(=O)N(C)C)cc4n3C2)CC1=O | 10 to 1000
COc1ccc2c(c1)C=C(C(=O)N1CCN(C)C(=O)C1)Cn1c-2c(C2CCCCC2)c2ccc(C(=O)NS(=O)(=O)N(C)C)cc21 | 10 to 1000
COc1ccc2c(c1)C=C(C(=O)N1CCN(C(=O)N3CCCCC3)CC1)Cn1c-2c(C2CCCCC2)c2ccc(C(=O)NS(=O)(=O)N(C)C)cc21 | 10 to 1000

same assay, conditions: Table 1b, read-out: IC50*

Compound | IC50 [nM]
COc1ccc2c(c1)C=C(C(=O)N(C)[C@H](C)C(=O)N(C)C)Cn1c-2c(C2CCCCC2)c2ccc(C(=O)NS(=O)(=O)N(C)C)cc21 | < 20
COc1ccc2c(c1)C=C(C(=O)N(C)[C@H](C)C(=O)N1CCOCC1)Cn1c-2c(C2CCCCC2)c2ccc(C(=O)NS(=O)(=O)N(C)C)cc21 | < 20
O=C(O)c1ccc2c(C3CCCCC3)c3n(c2c1)CC(C(=O)N1CCOC(CO)C1)=Cc1cc(F)ccc1-3 (stereo not drawn) | 20 to 1000
